# Source: patent US8759366B2, “Aminopyrimidines as SYK inhibitors” (Merck Sharp & Dohme Corp., priority 2009, dated 2014)
# pIC50: −log10 of the molar value.
# Biological target: recombinant human SYK (GST-hSYK fusion protein) (Homo sapiens (Human), UniProt P43405)
# Conditions: read-out: rhSYK Activity; Table 15
# Text: Homogeneous Time-Resolved Fluorescence (HTRF) Assay for the Recombinant Human SYK Enzyme:
row,SMILES,pIC50
1,OC(c1ncc(-c2cccc(Nc3nccc(C(F)(F)F)n3)c2)s1)(C1CC1)C1CC1 [Example 15-1],> 7.00
2,CC(O)(c1ncc(-c2cccc(Nc3nccc(C(F)(F)F)n3)c2)s1)C1CC1 (centres unmarked) [Example 15-3],> 7.00

# Same assay, conditions: read-out: rhSYK Activity; Table 21
row,SMILES,pIC50
1,O=C(NC1CC1)C1CCC(c2ncc(-c3cccc(Nc4nccc(C(F)(F)F)n4)c3)s2)CC1 (centres unmarked) [Example 21-13],> 7.00
2,FC(F)(F)c1ccnc(Nc2cccc(-c3cnc(CCN4CCCC4=S)s3)c2)n1 [Example 21-16],> 7.00

# Same assay, conditions: read-out: rhSYK Activity; Table 24
row,SMILES,pIC50
1,CC1(c2ncc(-c3cc(Nc4nccc(C(F)(F)F)n4)cc(N4CCOCC4)c3)s2)OCCO1 [Example 24-2],> 7.00

# Same assay, conditions: read-out: rhSYK Activity; Table 26
row,SMILES,pIC50
1,O=C(O)C1CCC(F)(c2ncc(-c3cccc(Nc4nccc(C(F)(F)F)n4)c3)s2)CC1 (centres unmarked) [Example 25-6],> 7.00
2,Cc1cc(Nc2nccc(C(F)(F)F)n2)cc(-c2cnc(C3(F)CCC(C(=O)O)CC3)s2)c1 (centres unmarked) [Example 26-1],> 7.00
3,FC(F)(F)c1ccnc(Nc2cc(-c3cnc(C4(F)CCC4)s3)cc(N3CCOCC3)c2)n1 [Example 26-2],6.00 to 7.00
4,CCOC(=O)C1CCC(F)(c2ncc(-c3cccc(Nc4nccc(C(F)(F)F)n4)c3)s2)CC1 (centres unmarked) [Example 26-4],6.00 to 7.00
5,CCOC(=O)C1CCC(F)(c2ncc(-c3cccc(Nc4nccc(C(F)(F)F)n4)c3)s2)CC1 (centres unmarked) [Example 26-5],5.00 to 6.00

# Same assay, conditions: read-out: rhSYK Activity; Table 33B
row,SMILES,pIC50
1,Cc1cc(Nc2nccc(C(F)(F)F)n2)cc(-c2cnc(C3(O)CCCC3Cc3ccc(C(C)C(=O)O)cc3)s2)c1 (centres unmarked) [Example 33B-2],> 7.00
2,Cc1cc(Nc2nccc(C(F)(F)F)n2)cc(-c2cnc(C3(O)CC(C(=O)O)C(C)(C)C3)s2)c1 (centres unmarked) [Example 33B-3],> 7.00
3,COC1CC(O)(c2ncc(-c3cc(C)cc(Nc4nccc(C(F)(F)F)n4)c3)s2)CCC1C(=O)O (centres unmarked) [Example 33B-13],> 7.00
4,COC1CC(O)(c2ncc(-c3cc(C)cc(Nc4nccc(C(F)(F)F)n4)c3)s2)CCC1C(=O)O (centres unmarked) [Example 33B-14],> 7.00
5,Cc1cc(Nc2nccc(C(F)(F)F)n2)cc(-c2cnc(C3(O)CCC(C(=O)O)C4(CC4)C3)s2)c1 (centres unmarked) [Example 33B-17],> 7.00
6,Cc1cc(Nc2nccc(C(F)(F)F)n2)cc(-c2cnc(C3(O)CCCC(C(=O)O)C3)s2)c1 (centres unmarked) [Example 33B-21],> 7.00
7,Cc1cc(Nc2nccc(C)n2)cc(-c2cnc(C3(O)CCC(C(=O)O)C(c4ccccc4C)C3)s2)c1 (centres unmarked) [Example 33B-29],> 7.00
8,Cc1cc(Nc2nccc(C)n2)cc(-c2cnc(C3(O)CCC(C(=O)O)C(c4ccsc4)C3)s2)c1 (centres unmarked) [Example 33B-30],6.00 to 7.00
9,Cc1cc(Nc2nccc(C)n2)cc(-c2cnc(C3(O)CCC(C(=O)O)C(c4ccc(F)cc4)C3)s2)c1 (centres unmarked) [Example 33B-31],> 7.00
10,CCC1C(C)C(C(=O)O)CCC1(O)c1ncc(-c2cc(C)cc(Nc3nccc(C(F)(F)F)n3)c2)s1 (centres unmarked) [Example 33B-40],> 7.00

# Same assay, conditions: read-out: rhSYK Activity; Table 33C
row,SMILES,pIC50
1,Cc1cc(Nc2nccc(C)n2)cc(-c2cnc(C3(O)C4CC5CC3CC(C(=O)O)(C5)C4)s2)c1 (centres unmarked) [Example 33C-20],> 7.00

# Same assay, conditions: read-out: rhSYK Activity; Table 33D
row,SMILES,pIC50
1,Cc1cc(Nc2nccc(C(F)(F)F)n2)cc(-c2cnc(C(C)(O)/C=C/C(C)(C)C(=O)O)s2)c1 (centres unmarked) [Example 33D-5],> 7.00
2,COC(=O)C(C)(C)/C=C/C(C)(O)c1ncc(-c2cc(C)cc(Nc3nccc(C(F)(F)F)n3)c2)s1 (centres unmarked) [Example 33D-6],> 7.00
3,Cc1cc(Nc2nccc(C(F)(F)F)n2)cc(-c2cnc(C(C)(O)c3ccc(NC(=O)CCC(=O)O)cc3)s2)c1 (centres unmarked) [Example 33D-14],> 7.00

# Same assay, conditions: read-out: rhSYK Activity; Table 113C
row,SMILES,pIC50
1,Cc1cc(Nc2nccc(-c3cccs3)n2)cc(-c2cnc(C3(O)CCNC(=O)CC3)s2)c1 (centres unmarked) [113C-12],> 7.00
2,Cc1cc(Nc2nccc(C3CC3)n2)cc(-c2cnc(C3(O)CCCNCC3)s2)c1 (centres unmarked) [113C-13],> 7.00
3,Cc1cc(Nc2nccc(C(C)C)n2)cc(-c2cnc(C3(O)CCCN(C(=O)OC(C)(C)C)CC3)s2)c1 (centres unmarked) [113C-19],> 7.00

# Same assay, conditions: read-out: rhSYK Activity; Table 116A
row,SMILES,pIC50
1,COc1ccc(Cn2cc(-c3ccnc(Nc4cc(C)cc(-c5cnc(C6(O)CCC(C(=O)O)CC6)s5)c4)n3)nn2)cc1 (centres unmarked) [116A-17],> 7.00
2,Cc1cc(Nc2ncc(Cl)c(O)n2)cc(-c2cnc(C3(O)CCC(C(=O)O)C(C)(C)C3)s2)c1 (centres unmarked) [116A-29],6.00 to 7.00
